Assay results reported in patent US20090018194A1, “Use of antimicrobial agents derived from alliaceous plants for the prevention and control of crop diseases, post-harvest rot and as environmental disinifectant products” (DMC Research Center, S.L., priority 2007, published 2009).

Tests used:
[1] = test system: Salmonella typhimurium ATCC 13311; assay: agar diffusion test with impregnated cellulose discs; format: cell-based; conditions: incl. 6 mm disc
Leveillula taurica = assay: control of powdery mildew in peppers grown in greenhouses; format: in vivo; conditions: doses of 1000 and 2000 ppm; peppers in greenhouse; reference Ciproconazol/Triadimenol
From the text: Some of these tests were especially significant, such as the result against powdery mildew in peppers grown in greenhouses in Almeria. The relevance of the data obtained is based on the scarcity of effective and non-synthetic systems that control this disease (caused by Leveillula taurica).
In the case of this test, spray guns were used, via the greenhouse irrigation system, to apply solutions of 1000 ppm and 2000 ppm of PTS and PTSO, with a nutrient broth volume of 20, 30, 40 l/parcel, depending on the application. These solutions were distributed in parcels of 4 rows, located in the zone of the greenhouse with a greater incidence of powdery mildew, while a reference product was applied in the rest of the warehouse: Ciproconazol (Caddy 10 WG at 10 gr/100 l) for the first and second application, Triadimenol (Bayfidan 25 EC at 25 ml/100 l) for the third application and Ciproconazol/Triadimenol for the final application.

[2] = test system: Bacillus megaterium ATCC 33085; assay: agar diffusion test with impregnated cellulose discs; format: cell-based; conditions: incl. 6 mm disc
[3] = test system: Candida magnoliae DSMZ 70638; assay: as above; format: cell-based; conditions: incl. 6 mm disc
[4] = test system: Candida krusei ATCC 34135; assay: as above; format: cell-based; conditions: incl. 6 mm disc
[5] = test system: Candida parapsilosis CCTM 1038; assay: as above; format: cell-based; conditions: incl. 6 mm disc
[6] = test system: Saccharomyces cerevisiae CECT 1324; assay: as above; format: cell-based; conditions: incl. 6 mm disc
[7] = test system: Aspergillus terreus CECT 2663; assay: as above; format: cell-based; conditions: incl. 6 mm disc
[8] = test system: Penicillium sp. (CPC-PT-2); assay: agar diffusion test, wild fungi isolated from crown rot in bananas; format: cell-based; conditions: incl. 6 mm disc
[9] = test system: Penicillium sp. (CPC-PT-3); assay: as above; format: cell-based; conditions: incl. 6 mm disc
[10] = test system: Penicillium sp. (CPC-PT-4); assay: as above; format: cell-based; conditions: incl. 6 mm disc
[11] = test system: Penicillium digitatum Supplied by Brogdex SA; assay: agar diffusion test, wild phytopathogens isolated from citrus rot; format: cell-based; conditions: incl. 6 mm disc
[12] = test system: Penicillium digitatum Wild strain Supplied by UdL-IRTA; assay: as above; format: cell-based; conditions: incl. 6 mm disc
[13] = test system: Phytophthora citrophthora CECT 2353; assay: as above; format: cell-based; conditions: incl. 6 mm disc
Botrytis cinerea = assay: field control of Botrytis in strawberries, foliar spraying; format: in vivo; conditions: after 12 days
FUNGI = assay: environmental disinfection of banana storage and ripening rooms by fogging, air sampling; conditions: fogging of 1500 ppm solution; for MICROBE COUNTS FUNGI CFU/dish: 80 liters collected/dish; for % REDUCTION OF ENVIRONMENTAL MICROBIOTA Fungal population: after vs before treatment
Procedure: (§1) A study was conducted to verify the environmental disinfecting capability of the compound PTS in rooms of a fruit and vegetable processing plant, in particular one that handled bananas. For test purposes, three separate rooms of the central were sampled, and the environmental quality was studied before and after the treatment with PTS. First, an environmental sample was taken in each room prior to the treatment, using an […]-Omega air sampling device manufactured by LCB, by suctioning a volume of air set at 80 L which impacted over the different cultivation media selected. The samples were taken in duplicate in the areas to be analyzed. PCA agar medium was used to count the total mesophilic aerobes, and the medium Rose Bengal agar was used to count the fungi. The environmental disinfectant treatment comprised fogging of a 1500 ppm solution of PTS. 5 liters of this solution were fogged for each 1000 m^3 of the room. […] Several hours after the fogging, the sampling operation was repeated in the different rooms that had been treated as described above. […] Once the incubation time had elapsed, the readings were taken by counting the microorganisms that appeared in each type of dish, expressed as cfu/dish.

Total mesophilic AEROBES = assay: as above; conditions: fogging of 1500 ppm solution; for MICROBE COUNTS Total mesophilic AEROBES CFU/dish: 80 liters collected/dish; for % REDUCTION OF ENVIRONMENTAL MICROBIOTA Population of total mesophilic aerobes: after vs before treatment
Procedure: as §1

[14] = Zone 1 of the ripening room after treatment
[15] = Zone 2 of the ripening room after treatment

**Q.** Which results are given for `CCCSS(=O)(=O)CCC` [PTSO, Propyl Propyl Thiosulfonate]?
**A.** diameter of the microbial inhibition halo ([1]; 60 ppm): 16 mm; diameter of the microbial inhibition halo ([1]; 125 ppm): 17 mm; diameter of the microbial inhibition halo ([1]; 250 ppm): 25 mm; diameter of the microbial inhibition halo ([1]; 500 ppm): 25 mm; diameter of the microbial inhibition halo ([1]; 1000 ppm): 27 mm; control of powdery mildew, as % of the effectiveness of the reference product (Leveillula taurica): slightly lower

**Q.** What does the source list for `CCCS[S+]([O-])CCC` (centres unmarked) [PTS, Propyl Propyl Thiosulfinate]?
**A.** diameter of the microbial inhibition halo ([2]; 25 ppm): 23 mm; diameter of the microbial inhibition halo ([2]; 50 ppm): 27 mm; diameter of the microbial inhibition halo ([2]; 100 ppm): 34 mm; diameter of the microbial inhibition halo ([3]; 25 ppm): 22 mm; diameter of the microbial inhibition halo ([3]; 50 ppm): 30 mm; diameter of the microbial inhibition halo ([3]; 100 ppm): 38 mm; diameter of the microbial inhibition halo ([4]; 25 ppm): 14 mm; diameter of the microbial inhibition halo ([4]; 50 ppm): 18 mm; diameter of the microbial inhibition halo ([4]; 100 ppm): 29 mm; diameter of the microbial inhibition halo ([5]; 25 ppm): 0 mm; diameter of the microbial inhibition halo ([5]; 50 ppm): 14 mm; diameter of the microbial inhibition halo ([5]; 100 ppm): 17 mm; diameter of the microbial inhibition halo ([6]; 25 ppm): 28 mm; diameter of the microbial inhibition halo ([6]; 50 ppm): 32 mm; diameter of the microbial inhibition halo ([6]; 100 ppm): 44 mm; diameter of the microbial inhibition halo ([7]; 25 ppm): 12 mm; diameter of the microbial inhibition halo ([7]; 50 ppm): 22 mm; diameter of the microbial inhibition halo ([7]; 100 ppm): 25 mm; diameter of the microbial inhibition halo ([1]; 60 ppm): 11 mm; diameter of the microbial inhibition halo ([1]; 125 ppm): 15 mm; diameter of the microbial inhibition halo ([1]; 250 ppm): 22 mm; diameter of the microbial inhibition halo ([1]; 500 ppm): 23 mm; diameter of the microbial inhibition halo ([1]; 1000 ppm): 25 mm; diameter of the microbial inhibition halo ([8]; 30 ppm): 0 mm; diameter of the microbial inhibition halo ([8]; 60 ppm): 0 mm; diameter of the microbial inhibition halo ([8]; 125 ppm): 0 mm; diameter of the microbial inhibition halo ([8]; 250 ppm): 15 mm; diameter of the microbial inhibition halo ([8]; 500 ppm): 25 mm; diameter of the microbial inhibition halo ([8]; 1000 ppm): 25 mm; diameter of the microbial inhibition halo ([9]; 30 ppm): 0 mm; diameter of the microbial inhibition halo ([9]; 60 ppm): 0 mm; diameter of the microbial inhibition halo ([9]; 125 ppm): 10 mm; diameter of the microbial inhibition halo ([9]; 250 ppm): 13 mm; diameter of the microbial inhibition halo ([9]; 500 ppm): 15 mm; diameter of the microbial inhibition halo ([9]; 1000 ppm): 17 mm; diameter of the microbial inhibition halo ([10]; 30 ppm): 0 mm; diameter of the microbial inhibition halo ([10]; 60 ppm): 11 mm; diameter of the microbial inhibition halo ([10]; 125 ppm): 13 mm; diameter of the microbial inhibition halo ([10]; 250 ppm): 20 mm; diameter of the microbial inhibition halo ([10]; 500 ppm): 23 mm; diameter of the microbial inhibition halo ([10]; 1000 ppm): 25 mm; diameter of the microbial inhibition halo ([11]; 30 ppm): 12 mm; diameter of the microbial inhibition halo ([11]; 60 ppm): 15 mm; diameter of the microbial inhibition halo ([11]; 125 ppm): 20 mm; diameter of the microbial inhibition halo ([11]; 250 ppm): 33 mm; diameter of the microbial inhibition halo ([11]; 500 ppm): 33 mm; diameter of the microbial inhibition halo ([11]; 1000 ppm): 35 mm; diameter of the microbial inhibition halo ([12]; 30 ppm): 12 mm; diameter of the microbial inhibition halo ([12]; 60 ppm): 15 mm; diameter of the microbial inhibition halo ([12]; 125 ppm): 20 mm; diameter of the microbial inhibition halo ([12]; 250 ppm): 33 mm; diameter of the microbial inhibition halo ([12]; 500 ppm): 40 mm; diameter of the microbial inhibition halo ([12]; 1000 ppm): 41 mm; diameter of the microbial inhibition halo ([13]; 30 ppm): 10 mm; diameter of the microbial inhibition halo ([13]; 60 ppm): 21 mm; diameter of the microbial inhibition halo ([13]; 125 ppm): 23 mm; diameter of the microbial inhibition halo ([13]; 250 ppm): 42 mm; diameter of the microbial inhibition halo ([13]; 500 ppm): 53 mm; diameter of the microbial inhibition halo ([13]; 1000 ppm): 55 mm; control of powdery mildew, as % of the effectiveness of the reference product (Leveillula taurica): 92%; % of fruit affected (Botrytis cinerea; 2000 ppm): 3.8%; No. of fruits affected (Botrytis cinerea; 2000 ppm, 150 fruits): 6; % of fruit affected (Botrytis cinerea; 2400 ppm): 3.1%; No. of fruits affected (Botrytis cinerea; 2400 ppm, 148 fruits): 5; % of fruit affected (Botrytis cinerea; 4800 ppm): 3.1%; No. of fruits affected (Botrytis cinerea; 4800 ppm, 141 fruits): 4; % of fruit affected (Botrytis cinerea; 9600 ppm): 2%; No. of fruits affected (Botrytis cinerea; 9600 ppm, 114 fruits): 2; MICROBE COUNTS FUNGI CFU/m^3 (FUNGI; Entry room after treatment): 707 CFU/m^3; MICROBE COUNTS FUNGI CFU/dish (FUNGI; Entry room after treatment): 51 CFU/dish; % REDUCTION OF ENVIRONMENTAL MICROBIOTA Fungal population (FUNGI; Entry room): 70%; MICROBE COUNTS FUNGI CFU/m^3 (FUNGI; [14]): 273 CFU/m^3; MICROBE COUNTS FUNGI CFU/dish (FUNGI; [14]): 21 CFU/dish; % REDUCTION OF ENVIRONMENTAL MICROBIOTA Fungal population (FUNGI; Zone 1 of the ripening room): 23%; MICROBE COUNTS FUNGI CFU/m^3 (FUNGI; [15]): 328 CFU/m^3; MICROBE COUNTS FUNGI CFU/dish (FUNGI; [15]): 25 CFU/dish; % REDUCTION OF ENVIRONMENTAL MICROBIOTA Fungal population (FUNGI; Zone 2 of the ripening room): 36%; MICROBE COUNTS Total mesophilic AEROBES CFU/m^3 (Total mesophilic AEROBES; Entry room after treatment): 314 CFU/m^3; MICROBE COUNTS Total mesophilic AEROBES CFU/dish (Total mesophilic AEROBES; Entry room after treatment): 24 CFU/dish; % REDUCTION OF ENVIRONMENTAL MICROBIOTA Population of total mesophilic aerobes (Total mesophilic AEROBES; Entry room): 65%; MICROBE COUNTS Total mesophilic AEROBES CFU/m^3 (Total mesophilic AEROBES; [14]): 287 CFU/m^3; MICROBE COUNTS Total mesophilic AEROBES CFU/dish (Total mesophilic AEROBES; [14]): 22 CFU/dish; % REDUCTION OF ENVIRONMENTAL MICROBIOTA Population of total mesophilic aerobes (Total mesophilic AEROBES; Zone 1 of the ripening room): 69%; MICROBE COUNTS Total mesophilic AEROBES CFU/m^3 (Total mesophilic AEROBES; [15]): 1487 CFU/m^3; MICROBE COUNTS Total mesophilic AEROBES CFU/dish (Total mesophilic AEROBES; [15]): 96 CFU/dish; % REDUCTION OF ENVIRONMENTAL MICROBIOTA Population of total mesophilic aerobes (Total mesophilic AEROBES; Zone 2 of the ripening room): 58%
